This is an account of results in patent publication US10435439B2, “Peptide with safer secondary structure, peptide library, and production methods for same” (The University of Tokyo, priority 2010, dated 2019).

*1 amine or outer side, *2 acyl side, *3 side chain or, on linkers, in order; H or OH if unused. Where a SMILES comes first, the peptide text is derived from it. Bridges are numbered along the chain shown (N, C = ends). [ ]: non-standard residue; d: D form. Nle(4-yne,6-yl) = O=C([C@H](CC#CC[*:3])N[*:1])[*:2]

Bcl-2 protein having His tag on the C terminal side, sequence (P10415 whole entry): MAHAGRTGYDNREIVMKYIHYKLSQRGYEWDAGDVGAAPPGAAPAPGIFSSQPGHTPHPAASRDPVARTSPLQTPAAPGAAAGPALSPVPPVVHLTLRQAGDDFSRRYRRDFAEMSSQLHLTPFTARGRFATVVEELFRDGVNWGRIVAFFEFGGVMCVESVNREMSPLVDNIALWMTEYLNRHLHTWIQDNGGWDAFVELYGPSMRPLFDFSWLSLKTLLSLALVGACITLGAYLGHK

The assay has as its target Bcl-2 protein having His tag on the C terminal side (Homo sapiens, UniProt P10415). The experiment in a line: Binding ability to Bcl-2 by SPR (Surface Plasmon Resonance), dissociation constant. The settings on record: His-tagged Bcl-2 immobilized on Ni substrate, solid-phase synthesized peptide, KD from binding and dissociation rates. On the procedure: Next, a crosslinked peptide having the amino acid sequence as shown in the above table was synthesized by using a Fmoc solid-phase method and its binding ability was evaluated by calculating a dissociation constant (KD) in accordance with an evaluation method using SPR (Surface Plasmon Resonance).
Described specifically, first, a solution containing NiCl2 was applied on a substrate to which Ni could be bound and then Bcl-2 protein having His tag on the C terminal side thereof was applied to immobilize the protein on the substrate. Then, a solution containing a solid-phase synthesized peptide was added successively while appropriately changing the concentration. During addition, a change in refractive index depending on the weight on the substrate was read and bond strength was evaluated based on the binding rate and dissociation rate of the peptide calculated.
In general terms: In SPR one partner is held on a chip, and binding of the other changes the refractive index at the surface.
What is called Kd is the equilibrium constant for the complex coming apart. `CC[C@H](C)[C@@H]1NC(=O)[C@H]([C@@H](C)O)NC(=O)[C@@H](NC(=O)[C@H](Cc2c[nH]cn2)NC(=O)[C@@H]2CCCN2C(=O)[C@H](Cc2ccccc2)NC(C)=O)CC#CCSC[C@@H](C(=O)N[C@@H](CCCNC(=N)N)C(=O)N[C@@H](C)C(=O)N[C@@H](CC(=O)O)C(=O)N[C@@H](CO)C(=O)N[C@@H](Cc2ccc(O)cc2)C(=O)N[C@@H](CC(=O)O)C(=O)N[C@@H](CO)C(=O)N[C@@H](Cc2ccc(O)cc2)C(=O)N[C@H](C(=O)N[C@@H](CCCNC(=N)N)C(=O)N[C@@H](CC(C)C)C(=O)N[C@@H](C)C(=O)N[C@@H](C)C(=O)N[C@H](C(=O)N[C@@H](Cc2ccccc2)C(=O)N[C@@H](CC(C)C)C(N)=O)[C@@H](C)O)C(C)C)NC(=O)[C@H](C)NC1=O` [A-1] (Ac-FPH[Nle(4-yne,6-yl)]TIACRADSYDSYVRLAATFL-NH2; thioether 4-8): the Kd worked out at 0.37 nM.
On to `CC(=O)N[C@@H](Cc1ccccc1)C(=O)N[C@@H](CC(C)C)C(=O)N[C@@H](CC(N)=O)C(=O)N[C@@H](CCCNC(=N)N)C(=O)N[C@@H](Cc1c[nH]cn1)C(=O)N[C@@H](CC(N)=O)C(=O)N[C@@H](CC(N)=O)C(=O)N[C@@H](C)C(=O)N[C@@H](Cc1ccc(O)cc1)C(=O)N[C@@H](Cc1ccc(O)cc1)C(=O)N[C@H](C(=O)N[C@H]1CC#CCSC[C@@H](C(=O)N[C@@H](CC(C)C)C(=O)NCC(=O)N[C@@H](CCCNC(=N)N)C(=O)N[C@@H](CC(C)C)C(=O)N[C@@H](Cc2ccc(O)cc2)C(=O)N[C@@H](CCCNC(=N)N)C(=O)N[C@@H](CC(C)C)C(=O)N[C@@H](CC(C)C)C(N)=O)NC(=O)[C@H](C)NC(=O)[C@H](Cc2ccc(O)cc2)NC(=O)CNC1=O)[C@@H](C)O` [A-3] (Ac-FLNRHNNAYYT[Nle(4-yne,6-yl)]GYACLGRLYRLL-NH2; thioether 12-16), for which the Kd is > 0.1 nM.
`CC(=O)N[C@@H](Cc1ccccc1)C(=O)N[C@@H](Cc1ccccc1)C(=O)N[C@@H](CC(N)=O)C(=O)N[C@@H](CCCNC(=N)N)C(=O)N[C@@H](Cc1c[nH]cn1)C(=O)N[C@@H](CC(N)=O)C(=O)N[C@@H](CC(N)=O)C(=O)N[C@@H](C)C(=O)N[C@@H](Cc1ccc(O)cc1)C(=O)N[C@@H](Cc1ccc(O)cc1)C(=O)N[C@H](C(=O)N[C@H]1CC#CCSC[C@@H](C(=O)N[C@@H](CC(C)C)C(=O)NCC(=O)N[C@@H](CCCNC(=N)N)C(=O)N[C@@H](CC(C)C)C(=O)N[C@@H](Cc2ccc(O)cc2)C(=O)N[C@@H](CCCNC(=N)N)C(=O)N[C@@H](CC(C)C)C(=O)N[C@@H](CC(C)C)C(N)=O)NC(=O)[C@H](C)NC(=O)[C@H](Cc2ccc(O)cc2)NC(=O)CNC1=O)[C@@H](C)O` [A-4] (Ac-FFNRHNNAYYT[Nle(4-yne,6-yl)]GYACLGRLYRLL-NH2; thioether 12-16): the Kd was > 0.1 nM.
With `CC[C@H](C)[C@H](NC(=O)[C@H](Cc1c[nH]cn1)NC(=O)[C@H](CCCNC(=N)N)NC(=O)[C@H](CO)NC(=O)[C@H](C)NC(=O)[C@H](CC(=O)O)NC(=O)[C@H](Cc1ccc(O)cc1)NC(=O)[C@H](CO)NC(=O)[C@H](CC(=O)O)NC(=O)[C@H](C)NC(=O)[C@H](CC(C)C)NC(=O)[C@@H]1CSCC#CC[C@H](NC(=O)[C@@H](NC(=O)[C@@H](NC(=O)[C@H](Cc2ccccc2)NC(C)=O)[C@@H](C)CC)[C@@H](C)CC)C(=O)N[C@@H](CCCNC(=N)N)C(=O)N[C@@H](Cc2ccccc2)C(=O)N[C@@H](CO)C(=O)N1)C(=O)N[C@@H](Cc1ccccc1)C(N)=O` [A-5] (Ac-FII[Nle(4-yne,6-yl)]RFSCLADSYDASRHIF-NH2; thioether 4-8), the Kd is 0.17 nM. This lies in the sub-nanomolar range.
